Assay results from patent publication US20240158348A1, “HERBICIDAL CYCLIC AMIDES N-SUBSTITUTED WITH A HALOALKYLSULFONYLANILIDE GROUP” (FMC Corporation, priority 2021, published 2024).

What was measured:
Type in all cases: in vivo
[1] = system: goosegrass (Eleusine indica); assay: Test C preemergence, goosegrass; conditions: 0 is no effect, 100 is complete control
Outline: (§1)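 Corn, ragweed and goosegrass were sown in loam/sand and given a preemergence directed soil spray of compounds in a non-phytotoxic solvent with surfactant. Galium was sprayed postemergence at 2–10 cm height, one- to two-leaf stage. After 10 or 12 days in a greenhouse, injury was rated visually against untreated controls on a 0 (no effect) to 100 (complete control) scale.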

[2] = system: ragweed (common ragweed, Ambrosia artemisiifolia); assay: Test C postemergence, ragweed; conditions: for Ragweed plant response rating: visual injury, 0 to 100 scale (0 no effect, 100 complete control); for Plant response rating (0 to 100 scale), Ragweed: 0 is no effect, 100 is complete control
Outline: (§2)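 Plants grown in a sand and loam soil blend received the formulated test chemicals either as a preemergence soil-directed spray or postemergence at 2 to 10 cm height. After 10 or 12 greenhouse days, injury was assessed visually, with 100 meaning complete control.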

[3] = system: wheat (Triticum aestivum); assay: Test C postemergence, wheat; conditions: for Wheat plant response rating: visual injury, 0 to 100 scale (0 no effect, 100 complete control); for Plant response rating (0 to 100 scale), Wheat: 0 is no effect, 100 is complete control
Outline: as §2

corn (Zea mays) = assay: Test C preemergence, corn; conditions: 0 is no effect, 100 is complete control
Outline: as §1

[4] = system: barnyardgrass (Echinochloa crusgalli); assay: Test D flooded paddy test, barnyardgrass; set-up: key: 0 = no effect, 100 = complete control; conditions: 250 g ai/ha, Flood; applied to paddy water at 2-leaf stage; visual rating after 13 days; scale 0 (no effect) to 100 (complete control)
Outline: (§3)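 2-leaf plants; flood 3 cm over soil; cpd into paddy water; depth maintained; greenhouse 13 d; visual rating vs controls, 0 = no effect, 100 = complete control; dash = no result.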

soybean (Glycine max) = assay: Test C postemergence, soybean; conditions: for Soybean plant response rating: visual injury, 0 to 100 scale (0 no effect, 100 complete control); for Plant response rating (0 to 100 scale), Soybean: 0 is no effect, 100 is complete control
[5] = system: sedge, umbrella (small-flower umbrella sedge, Cyperus difformis); assay: Test D flooded paddy test, umbrella sedge; set-up: key: 0 = no effect, 100 = complete control; conditions: 250 g ai/ha, Flood; applied to paddy water at 2-leaf stage; visual rating after 13 days; scale 0 (no effect) to 100 (complete control)
Outline: as §3

[6] = system: foxtail, giant (giant foxtail, Setaria faberi); assay: Test C preemergence, giant foxtail; conditions: 0 is no effect, 100 is complete control
Outline: as §2

[7] = system: pigweed, palmer (palmer amaranth, Amaranthus palmeri); assay: Test C postemergence, palmer amaranth; conditions: for Pigweed, Palmer plant response rating: visual injury, 0 to 100 scale (0 no effect, 100 complete control); for Plant response rating (0 to 100 scale), Pigweed, Palmer: 0 is no effect, 100 is complete control
Outline: as §2

Row | Structure (SMILES) | Plant response rating (0 to 100 scale), Goosegrass ([1]; 31 g ai/ha Preemergence) | Plant response rating (0 to 100 scale), Goosegrass ([1]; 125 g ai/ha Preemergence) | Ragweed plant response rating ([2]; 31 g ai/ha Postemergence) | Plant response rating (0 to 100 scale), Ragweed ([2]; 125 g ai/ha Postemergence) | Wheat plant response rating ([3]; 31 g ai/ha Postemergence) | Plant response rating (0 to 100 scale), Wheat ([3]; 125 g ai/ha Postemergence) | Plant response rating (0 to 100 scale), Corn (corn (Zea mays); 31 g ai/ha Preemergence) | Plant response rating (0 to 100 scale), Corn (corn (Zea mays); 125 g ai/ha Preemergence) | Plant response rating, Barnyardgrass [4] | Soybean plant response rating (soybean (Glycine max); 31 g ai/ha Postemergence) | Plant response rating (0 to 100 scale), Soybean (soybean (Glycine max); 125 g ai/ha Postemergence) | Plant response rating, Sedge, Umbrella [5] | Plant response rating (0 to 100 scale), Foxtail, Giant ([6]; 31 g ai/ha Preemergence) | Plant response rating (0 to 100 scale), Foxtail, Giant ([6]; 125 g ai/ha Preemergence) | Pigweed, Palmer plant response rating ([7]; 31 g ai/ha Postemergence) | Plant response rating (0 to 100 scale), Pigweed, Palmer ([7]; 125 g ai/ha Postemergence) | Ragweed plant response rating ([2]; 125 g ai/ha Postemergence) | Wheat plant response rating ([3]; 125 g ai/ha Postemergence) | Soybean plant response rating (soybean (Glycine max); 125 g ai/ha Postemergence) | Pigweed, Palmer plant response rating ([7]; 125 g ai/ha Postemergence)
1 | CCCC(=O)OCN(c1cc(N2CCC(OC3CC3)C2=O)c(C)cc1C)S(=O)(=O)C(F)(F)F (stereo not drawn) [Compound 20] | 100 | 100 | 80 | 90 | 70 | 70 | 60 | 90 | 90 | 60 | 70 | 98 | 90 | 100 | 50 | 80 |  |  |  | 
2 | Cc1cc(C)c(N2CCC(OCC3CCC3(F)F)C2=O)cc1NS(=O)(=O)C(F)(F)F (stereo not drawn) [Compound 52] | 80 | 100 | 40 |  | 20 |  | 10 | 90 | 20 | 60 |  | 80 | 90 | 100 | 0 |  | 70 | 70 | 70 | 40
3 | Cc1cc(C)c(N2CCC(OCC3CCC3)C2=O)cc1NS(=O)(=O)C(F)(F)F (stereo not drawn) [Compound 43] | 60 | 100 | 50 |  | 30 |  | 40 | 100 | 25 | 80 |  | 95 | 30 | 100 | 40 |  | 90 | 70 | 90 | 90
4 | CO/N=C1\CCN(c2cc(NS(=O)(=O)C(F)(F)F)c(C)cc2C)C1=O [Compound 9, 1,1,1-trifluoro-N-[5-[3-(methoxyimino)-2-oxo-1-pyrrolidinyl]-2,4-dimethylphenyl]methanesulfonamide] | 100 | 100 | 70 | 80 | 80 | 80 | 50 | 100 | 10 | 80 | 80 | 85 | 100 | 100 | 70 | 90 |  |  |  | 
5 | C#CC(C)OC1CCN(c2cc(NS(=O)(=O)C(F)(F)F)c(C)cc2C)C1=O (stereo not drawn) [Compound 58] | 100 | 100 | 70 |  | 70 |  | 20 | 100 | 90 | 60 |  | 95 | 100 | 100 | 50 |  | 90 | 70 | 90 | 80
6 | Cc1cc(C)c(N2CCC(OCC3CCCO3)C2=O)cc1NS(=O)(=O)C(F)(F)F (stereo not drawn) [Compound 42] | 50 | 100 | 40 |  | 0 |  | 0 | 70 | 0 | 70 |  | 90 | 20 | 100 | 50 |  | 90 | 80 | 80 | 70
7 | Cc1c(NS(=O)(=O)C(F)(F)F)cc(N2CCC(OC3CC3)C2=O)c(C)c1C (stereo not drawn) [Compound 47] | 100 | 100 | 60 |  | 80 |  | 30 | 90 | 75 | 70 |  | 95 | 100 | 100 | 30 |  | 80 | 80 | 90 | 70
8 | Cc1c(N2CCC(OC3CCC3)C2=O)cc(N(C(=O)OCC(C)C)S(=O)(=O)C(F)(F)F)c(C)c1C (stereo not drawn) [Compound 48] | 80 | 100 | 30 |  | 30 |  | 20 | 60 | 80 | 30 |  | 90 | 30 | 100 | 30 |  | 80 | 70 | 70 | 70
9 | Cc1c(NS(=O)(=O)C(F)(F)F)cc(N2CCC(OCC3CCC3)C2=O)c(C)c1F (stereo not drawn) [Compound 64] | 70 | 100 | 30 |  | 0 |  | 10 | 60 | 25 | 60 |  | 95 | 100 | 100 | 60 |  | 70 | 20 | 90 | 70
